One data set has as its system estrogen receptors. The settings on record: ability to displace [3H]estradiol from receptor sites; cited from earlier work.
The target in data set [1] is T1, estrogen receptor (calf uterine cytosol) (Bos taurus, UniProt P49884).
T1 construct: Fresh calf uteri obtained from a slaughterhouse; from tissue; host or cells: calf uterus, 150,000 x g cytosol from lyophilized powder
T1 sequence (P49884 1-596): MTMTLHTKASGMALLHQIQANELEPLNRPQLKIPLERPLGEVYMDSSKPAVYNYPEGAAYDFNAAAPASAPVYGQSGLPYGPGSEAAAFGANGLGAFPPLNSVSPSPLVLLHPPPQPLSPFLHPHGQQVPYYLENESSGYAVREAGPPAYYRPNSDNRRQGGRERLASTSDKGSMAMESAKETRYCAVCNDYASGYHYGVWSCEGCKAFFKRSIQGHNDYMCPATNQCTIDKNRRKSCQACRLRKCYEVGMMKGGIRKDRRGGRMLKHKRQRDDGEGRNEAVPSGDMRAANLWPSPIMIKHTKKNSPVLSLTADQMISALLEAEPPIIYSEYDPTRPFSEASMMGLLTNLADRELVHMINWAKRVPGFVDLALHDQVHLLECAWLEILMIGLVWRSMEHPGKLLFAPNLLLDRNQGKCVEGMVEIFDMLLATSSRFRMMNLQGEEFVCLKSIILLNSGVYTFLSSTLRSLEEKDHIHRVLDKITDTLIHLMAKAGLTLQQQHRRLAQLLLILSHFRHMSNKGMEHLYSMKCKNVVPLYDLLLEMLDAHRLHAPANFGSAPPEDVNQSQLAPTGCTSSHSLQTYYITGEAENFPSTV
The data set can be described thus: Competition for the estrogen receptor in calf uterine cytosol. The settings on record: for activity at 0.0005 µM: competitor 0.5 nM. Format: binding. How it is done:
Several compounds, at the two indicated concentrations, were allowed to compete with both labeled steroids for sites in calf uterine cytosol. Incubations were overnight at 4° C., and bound and free steroids were separated with dextran-coated charcoal.

For data set [2], the system named is antisera against bovine serum albumin complexes with E2-17-hemisuccinate, E2-6-carboxymethyloxime and E2-3-carboxymethyl ether. The experiment in a line: Radioimmunoassay with antisteroid antisera. Format: binding, rabbits. How it is done:
Antisteroid antisera were produced in rabbits immunized with steroid-bovineserum albumin conjugates.
Varying amounts of E2 dissolved in methanol were added to test tubes and evaporated to dryness. The residues were dissolved in 100 μl of antiserum that had been diluted in 0.1M phosphate, pH 7.0/0.015M sodium azide/0.15M NaCl/0.1% gelatin (PBS buffer). […] Upon completion of the incubation, 100 μl of 0.5% gelatin in PBS buffer was added, followed by 1 ml of PBS buffer containing 2.5 mg of dextran-coated charcoal. The mixture was agitated in a vortex mixer and, after 10 minutes at 4° C., it was centrifuged at 5000×g for 10 minutes at 4° C. Aliquots (0.9 ml) were assayed for radioactivity.
The data also indicate that very sensitive radioimmunoassays could be developed with all three antisera.

The subject of data set [3] is estrogen-dependent human breast tumor cell line (MCF-7). The data set can be described thus: Induction of growth of MCF-7 cells in vitro. Format: cell-based. An excerpt: This difference in potency, can be explained either by differences in the peripheral metabolism of the two compounds or by differences in events that occur after binding to the cytosolic receptor has taken place. At this time we believe the former explanation to be correct because the two estrogens are equipotent in vitro in inducing growth of an estrogen-dependent human breast tumor cell line (MCF-7).

Data set [4] deals with T2, calf uterine estrogen receptor (Bos taurus, UniProt P49884).
T2 construct: Fresh calf uteri obtained from a slaughterhouse; from tissue; host or cells: calf uterus, 150,000 x g cytosol from lyophilized powder
T2 sequence (P49884 1-596): T1 sequence (P49884 1-596)
The data set can be described thus: Saturation and Scatchard analysis of the estrogen receptor from calf uterus. The class given is binding. The settings on record: Scatchard analysis, calf uterine cytosol. How it is done:
Fresh calf uteri obtained from a slaughterhouse were brought to the laboratory on ice, immediately trimmed of fat, and cut into small pieces; the pieces were frozen in liquid nitrogen and pulverized. The pulverized frozen tissue was lyophilized, and the desiccated powder was stored under vacuum in sealed vials at -80° C. The uterine powders were usually used within 1 month of pulverization. When needed, the powders were suspended in 0.1M Tris-HCl, pH 7.4/2.5 mM EDTA/5 mM dithiotreithol (TED buffer) at 2.5 mg/ml and homogenized at 0° C. in a Polytron homogenizer with two or three pulses at 15 seconds each. The homogenate was then centrifuged at 150,000×g for 60 minutes and the resulting supernatant (cytosol), containing approximately 1 mg of protein per ml, was used for binding studies on the estrogen receptor.
After the solvent was removed under a stream of N2, 250 μl of cytosol was added and the samples were incubated at 0°-2° C. overnight. The following morning, 250 μl of a 0.5% suspension of dextran-coated charcoal in TED buffer was added to the tubes which then were mixed and centrifuged at 5000×g for 10 minutes. The supernatant was assayed to determine bound radioactivity.
A saturation analysis of the estrogen receptor from calf uterus was conducted. […] Nonspecific binding, specific binding and total binding were determined in parallel incubations containing 0.7 μM DES.
A Scatchard analysis of the estrogen receptor from calf uterus was also conducted.

For data set [5], the system named is 21-day-old female rats (uteri). The experiment in a line: Estrogen bioassay, uterine weight in 21-day-old female rats. Format: in vivo. The note with it: daily s.c. injections for 3 days, uterine weight on fourth day. How it is done:
Estrogenic potency was assayed in 21-day-old female rats. […] On the fourth day, the uteri were removed, trimmed, blotted, and weighed.

Data set [6] is described as follows: External localization of tracer in an ovariectomized squirrel monkey. Format: in vivo, squirrel monkey (Saimari Sciureus). The protocol:
The tracer ^131 I-E2 was synthesized as described in Example 6 with the exception that Na ^131 I was used for the exchange. The subject, a squirrel monkey (Saimari Sciureus), weighing 1.5 kilograms, was ovariectomized 2 weeks before the start of the experiment and an estradiol containing Silastic implant was placed subcutaneously in […] back. The implant was removed 24 hours before the intravenous injection of 200 μCi of the tracer dissolved in saline. […] Within 1 to 2 hours radioactivity could be detected in the suprapubic region, but when the bladder was aspirated and washed, 3.8 μCi of radioactivity was found in the urine.

Where [7] appears, read: read-out: B/B0 × 10^2, tracer ^3 H-E2 (0.74 nM).
Where [8] appears, read: read-out: B/B0 × 10^2, tracer ^3 H-E2 (0.74 nM), competitor 5.0 nM.
The mark [9] stands for this setting: read-out: B/B0 × 10^2, tracer ^125 I-E2 (0.22 nM).
Where [10] appears, read: read-out: B/B0 × 10^2, tracer ^125 I-E2 (0.22 nM), competitor 5 nM.

Like-named read-outs stand apart in the source and are kept apart here.

Take `C[C@]12CC[C@@H]3c4ccc(O)cc4C(I)=C[C@H]3[C@@H]1CC[C@@H]2O` [6-iodoestra-1,3,5(10), 6-tetraene-3,17β-diol]: in the data set with estrogen receptors, the relative binding affinity was 0.49.

With `C[C@]12CC[C@@H]3c4ccc(O)cc4CC[C@H]3[C@@H]1C[C@H](I)[C@@H]2O` [16β-iodoestra-1,3,5(10)-triene-3-17β-diol], the relative binding affinity in the data set on estrogen receptors is recorded as 0.57.

In the case of `C[C@]12C[C@H](O)[C@H]3[C@@H](CCC4=CC(=O)CC[C@@]43C)[C@@H]1CC[C@@H]2C(=O)CO` [Corticosterone], the activity at 0.0005 µM amounted to 103% in data set [1] (tracer ^3 H-E2 (0.74 nM), read-out: B/B0 × 10^2) and 100% in data set [1] (tracer ^125 I-E2 (0.22 nM), read-out: B/B0 × 10^2). Moreover, the activity at 0.005 µM in data set [1] (tracer ^3 H-E2 (0.74 nM), competitor 5.0 nM, read-out: B/B0 × 10^2) stood at 97%; in data set [1] (tracer ^125 I-E2 (0.22 nM), competitor 5 nM, read-out: B/B0 × 10^2), 93%.

Take `C[C@]12CC[C@H](O)CC1=CC[C@@H]1[C@@H]2CC[C@]2(C)C(=O)CC[C@@H]12` [Dehydroisoandrosterone]: the activity at 0.0005 µM stood at 98% in data set [1] (setting [7]) and 104% in data set [1] (setting [9]). For the same compound, the activity at 0.005 µM turned out to be 108% in data set [1] (setting [8]) and 107% in data set [1] (setting [10]).

For `C[C@]12CC[C@@H]3c4ccc(O)cc4CC[C@H]3[C@@H]1CC[C@@H]2O` [E2, estra-1,3,5(10)-triene-3,17β-diol, reference compound], the “tracer displaced from the antibody” value in data set [2] (anti-E2-6-carboxymethyloxime-albumin, 1 pg of E2) is listed as ~50%. For the same compound, the “inducing growth of MCF-7” value in data set [3] is on record as “equipotent”.

`C[C@]12CC[C@@H]3c4ccc(O)cc4CC[C@H]3[C@@H]1C[C@@H](I)[C@@H]2O` [I-E2, 16α-iodoestra-1,3,5,(10)-triene-3,17β-diol]: the binding capacity in data set [4] is recorded as 411 fmol/mg of protein. Also, the Kd in data set [4] (read-out: Ka (association constant) (converted)) is 0.141 nM. Moreover, the values for the activity at 0.0005 µM in data set [1] (setting [7]) and in data set [1] (setting [9]) were 69% and 35%, respectively. The activity at 0.005 µM in data set [1] (setting [8]) was 12%; in data set [1] (setting [10]) it was 2%. Further, the “competing for the estrogen receptor (in words)” value in data set [1] (regardless of which radioactive ligand was used) was “about equipotent”. For the same compound, in data set [5], the “estrogenic potency in vivo” value is reported as “estrogenic in vivo, albeit not as potent as E2 itself”. In addition, the “inducing growth of MCF-7” value in data set [3] is “equipotent”.

Consider `CC(=O)[C@H]1CC[C@H]2[C@@H]3CCC4=CC(=O)CC[C@]4(C)[C@H]3CC[C@]12C` [Progesterone], for which the values for the activity at 0.0005 µM in data set [1] (setting [7]) and in data set [1] (setting [9]) were 97% and 98%, respectively. Further, the activity at 0.005 µM in data set [1] (setting [8]) and in data set [1] (setting [10]) was 102% in each case.

For the compound `[3H]C1c2cc(O)ccc2[C@H]2CC[C@]3(C)[C@@H](O)CC[C@H]3[C@@H]2C1[3H]` (stereo partly drawn) [^3 H-E2], the “binding of tracer to antisera” value in data set [2] (three antisera, various dilutions) is recorded as “bound to all three antisera”.

Turning to `C[C@]12CC[C@@H]3c4ccc(O)cc4CC[C@H]3[C@@H]1C[C@@H]([131I])[C@@H]2O` [^131 I-E2], the “imaging of the uterus” value in data set [6] (Anger Camera) is “uterus was then imaged”. Besides, in data set [6] (bladder aspirated and washed, i.v. 200 μCi), the “radioactivity found in the urine” value is 3.8 μCi. In addition, the “time until radioactivity detected in the suprapubic region” value in data set [6] (i.v. 200 μCi) lay in the range of 1 to 2 h. Also, the “uptake of the tracer in the liver” value in data set [6] (i.v. 200 μCi, pin-hole collimator scan) was “could be seen immediately”.

(Values after patent US4465676A, “16α Halogen substituted 3,17β-dihydroxy steroidal estrogens” (priority 1980, dated 1984).)
